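Grown in 96-well plates, cells were treated for 48 hours with each compound at five concentrations. Insufficient inhibition: endpoint recorded as highest concentration tested. GI50 is the concentration that inhibits growth by half.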 Activity calls are given as the source filed them. Rule as the data show it: active = GI50 up to about 1.1 µM and inactive = higher.
Tests used:
Test in all cases: inhibition of tumour cell growth, NCI panel, 48 h
[1] = system: RPMI-8226
[2] = system: OVCAR-4
[3] = system: K562
[4] = system: HOP-62
[5] = system: SF-539
[6] = system: RXF 393
[7] = system: TK-10
[8] = system: OVCAR-8
[9] = system: HCT-15
[10] = system: DMS-114
[11] = system: NCI-H522
[12] = system: CCRF-CEM
[13] = system: HOP-92
[14] = system: HCC 2998
[15] = system: RXF 631
[16] = system: IGROV-1
[17] = system: DMS-273
[18] = system: UACC-257
[19] = system: HCT-116
[20] = system: NCI-H23
[21] = system: HL-60
[22] = system: OVCAR-5
[23] = system: HOP-18
[24] = system: SK-OV-3
[25] = system: M19-MEL
[26] = system: KM12
[27] = system: A549
[28] = system: Malme-3M
[29] = system: MOLT-4
[30] = system: SF-295
[31] = system: SNB-75
[32] = system: SNB-78
[33] = system: HT-29
[34] = system: SK-MEL-2
[35] = system: SF-268
[36] = system: NCI-H460
[37] = system: M14
[38] = system: OVCAR-3
[39] = system: U-251
[40] = system: SW-620
[41] = system: LXFL 529
[42] = system: SN12C
[43] = system: LOX IMVI
[44] = system: 786-0
[45] = system: SNB-19
[46] = system: KM-20L2
[47] = system: COLO 205
[48] = system: DLD-1
[49] = system: UACC-62
[50] = system: A498
[51] = system: UO-31
[52] = system: EKVX
[53] = system: ACHN
[54] = system: SK-MEL-28

Measured: GI50

O/N=C1\CCCCC1C(NO)c1ccccc1 (centres undefined)
> 100 µM: [9]
inactive: [1] > 100 µM | [2] > 100 µM | [3] > 100 µM | [4] > 100 µM | [5] > 100 µM | [6] > 100 µM | [7] > 100 µM | [8] > 100 µM | [10] 67 µM | [11] 81.5 µM | [12] > 100 µM | [13] 42.7 µM | [14] > 100 µM | [15] > 100 µM | [16] > 100 µM | [17] > 100 µM | [18] > 100 µM | [19] > 100 µM | [20] > 100 µM | [21] 57.7 µM | [22] > 100 µM | [23] > 100 µM | [24] > 100 µM | [25] > 100 µM | [26] > 100 µM | [27] > 100 µM | [28] > 100 µM | [29] 69.3 µM | [30] > 100 µM | [31] 23.7 µM | [32] > 100 µM | [33] > 100 µM | [34] > 100 µM | [35] 98.9 µM | [36] > 100 µM | [37] > 100 µM | [38] > 100 µM | [39] > 100 µM | [40] > 100 µM | [41] > 100 µM | [42] > 100 µM | [43] > 100 µM | [44] > 100 µM | [45] > 100 µM | [46] > 100 µM | [47] > 100 µM | [48] > 100 µM | [49] > 100 µM | [50] > 100 µM | [51] 89.5 µM | [52] > 100 µM | [53] > 100 µM | [54] > 100 µM

— ChEMBL document CHEMBL1201862, “PubChem BioAssay data set” (2004)
